Results from patent US10954228B2 (NATIONAL INSTITUTES OF HEALTH, UNITED STATES DEPARTMENT OF …, priority 2016, dated 2021).

Experiments:
Human LDHA = Human LDHA (Homo sapiens (Human), UniProt P00338); test: human LDHA primary biochemical assay; conditions: biochemical LDHA inhibitory activity, assay of Example 1; activity level classes defined in nM
Summary of the method: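 Human LDHA at 2 nM with 0.06 mM NADH and 0.2 mM sodium pyruvate in 200 mM Tris HCl pH 7.4, 100 μM EDTA, 0.01% TWEEN-20 (final). NADH consumption coupled to resazurin/diaphorase (0.037 mM; 0.133 mg/mL); inhibition read by fluorescence.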

MiaPaCa2 cells = test: cell-based HT lactate assay by colorimetric/fluorometric detection (cellular inhibition of lactate production)
Method: This example describes a cell-based metabolite assay by colorimetric/fluorometric detection employed in the characterization of a compound of formula (I) in an embodiment of the invention.
Cell-based HT Lactate assay is a miniaturized Biovision Lactate Colorimetric/Fluorometric Assay Kit (Cat #K607-100). The assay is roughly a 3.5 hour assay run in a 1536 plate format. Cell number optimization should be run for each cell line to achieve an optimal number in which lactate production equals roughly 90% of the standard curve range. Cell number per well optimization has been performed with the following cell lines: MiaPaCa2—500 cells/well, SNU398—500 cells/well, and P493—500 cells/well.

[1] = Homo sapiens, MIA PaCa-2, assay of Example 6

| Structure (SMILES) | IC50 (Human LDHA) [nM] | IC50 (MiaPaCa2 cells; [1]) [µM] | IC50 (MiaPaCa2 cells; assay of Example 6) [µM] |
| --- | --- | --- | --- |
| Cc1ccc(C#Cc2cccc(-c3nn(-c4nc(C(=O)O)cs4)c(C4CC45CC5)c3Cc3ccc(S(N)(=O)=O)c(F)c3)c2)s1 (centres unmarked) [Compound 131, 2-(4-(3-fluoro-4-sulfamoylbenzyl)-3-(3-((5-methylthiophen-2-yl)ethynyl)phenyl)-5-(spiro[2.2]pentan-1-yl)-1H-pyrazol-1-yl)thiazole-4-carboxylic acid] | < 100 | < 1 | – |
| Cc1ccc([C@H]2C[C@@H](c3cccc(-c4nn(-c5nc(C(=O)O)cs5)c(CC5CC5)c4Cc4ccc(S(N)(=O)=O)c(F)c4)c3)C2)s1 [Compound 132, 2-(5-(cyclopropylmethyl)-4-(3-fluoro-4-sulfamoylbenzyl)-3-(3-((cis)-3-(5-methylthiophen-2-yl)cyclobutyl)phenyl)-1H-pyrazol-1-yl)thiazole-4-carboxylic acid] | < 100 | < 1 | – |
| Cc1ccc(C2CC(c3cccc(-c4nn(-c5nc(C(=O)O)cs5)c(CC5CC5)c4Cc4ccc(S(N)(=O)=O)c(F)c4)c3)C2)s1 (centres unmarked) [Compound 133, 2-(5-(cyclopropylmethyl)-4-(3-fluoro-4-sulfamoylbenzyl)-3-(3-(3-(5-methylthiophen-2-yl)cyclobutyl)phenyl)-1H-pyrazol-1-yl)thiazole-4-carboxylic acid] | < 100 | – | < 1 |
| Cc1ccc(-c2cc(-c3nn(-c4nc(C(=O)O)cs4)c(CC4CC4)c3Cc3ccc(S(N)(=O)=O)c(F)c3)ccc2F)cc1F [Compound 137, 2-(5-(cyclopropylmethyl)-3-(3′,6-difluoro-4′-methyl-[1,1′-biphenyl]-3-yl)-4-(3-fluoro-4-sulfamoylbenzyl)-1H-pyrazol-1-yl)thiazole-4-carboxylic acid] | < 100 | < 1 | – |
| NS(=O)(=O)c1ccc(Cc2c(-c3ccc(F)c(-c4ccc(C(F)(F)F)cc4)c3)nn(-c3nc(C(=O)O)cs3)c2CC2CC2)cc1F [Compound 138, 2-(5-(cyclopropylmethyl)-3-(6-fluoro-4′-(trifluoromethyl)-[1,1′-biphenyl]-3-yl)-4-(3-fluoro-4-sulfamoylbenzyl)-1H-pyrazol-1-yl)thiazole-4-carboxylic acid] | < 100 | < 1 | – |
| NS(=O)(=O)c1ccc(Cc2c(-c3ccc(F)c(-c4ccc(Cl)cc4)c3)nn(-c3nc(C(=O)O)cs3)c2CC2CC2)cc1F [Compound 139, 2-(3-(4′-chloro-6-fluoro-[1,1′-biphenyl]-3-yl)-5-(cyclopropylmethyl)-4-(3-fluoro-4-sulfamoylbenzyl)-1H-pyrazol-1-yl)thiazole-4-carboxylic acid] | < 100 | < 1 | – |
| Cc1cccc(-c2cc(-c3nn(-c4nc(C(=O)O)cs4)c(CC4CC4)c3Cc3ccc(S(N)(=O)=O)c(F)c3)ccc2F)c1 [Compound 141] | < 100 | – | < 1 |
| NS(=O)(=O)c1ccc(Cc2c(-c3ccc(F)c(-c4ccc5c(c4)CCCC5)c3)nn(-c3nc(C(=O)O)cs3)c2CC2CC2)cc1F [Compound 143, 2-(5-(cyclopropylmethyl)-3-(4-fluoro-3-(5,6,7,8-tetrahydronaphthalen-2-yl)phenyl)-4-(3-fluoro-4-sulfamoylbenzyl)-1H-pyrazol-1-yl)thiazole-4-carboxylic acid] | < 100 | < 1 | – |
| NS(=O)(=O)c1ccc(Cc2c(-c3ccc(F)c(-c4ccc(Cl)c(F)c4)c3)nn(-c3nc(C(=O)O)cs3)c2CC2CC2)cc1F [Compound 144, 2-(3-(4′-chloro-3′,6-difluoro-[1,1′-biphenyl]-3-yl)-5-(cyclopropylmethyl)-4-(3-fluoro-4-sulfamoylbenzyl)-1H-pyrazol-1-yl)thiazole-4-carboxylic acid] | < 100 | < 1 | – |
| NS(=O)(=O)c1ccc(Cc2c(-c3ccc(F)c(C4=CCCCC4)c3)nn(-c3nc(C(=O)O)cs3)c2CC2CC2)cc1F [Compound 146, 2-(5-(cyclopropylmethyl)-3-(6-fluoro-2′,3′,4′,5′-tetrahydro-[1,1′-biphenyl]-3-yl)-4-(3-fluoro-4-sulfamoylbenzyl)-1H-pyrazol-1-yl)thiazole-4-carboxylic acid] | < 100 | < 1 | – |

More lines, main results first:

| IC50 (Human LDHA) [nM] | IC50 (MiaPaCa2 cells; [1]) [µM] | Structure (SMILES) | IC50 (MiaPaCa2 cells; assay of Example 6) [µM] |
| --- | --- | --- | --- |
| 100 to 1000 | < 1 | NS(=O)(=O)c1ccc(Cc2c(-c3cccc(C#Cc4ccc(C5CC5)s4)c3)nn(-c3nc(C(=O)O)cs3)c2CC2CC2)cc1F [Compound 117, 2-(5-(cyclopropylmethyl)-3-(3-((5-cyclopropylthiophen-2-yl)ethynyl)phenyl)-4-(3-fluoro-4-sulfamoylbenzyl)-1H-pyrazol-1-yl)thiazole-4-carboxylic acid] | – |
| < 100 | < 1 | NS(=O)(=O)c1ccc(Cc2c(-c3cccc(C#Cc4ccc(Cl)s4)c3)nn(-c3nc(C(=O)O)cs3)c2CC2CC2)cc1F [Compound 118, 2-(3-(3-((5-chlorothiophen-2-yl)ethynyl)phenyl)-5-(cyclopropylmethyl)-4-(3-fluoro-4-sulfamoylbenzyl)-1H-pyrazol-1-yl)thiazole-4-carboxylic acid] | – |
| < 100 | < 1 | Cc1ccc(/C=C/c2cccc(-c3nn(-c4nc(C(=O)O)cs4)c(CC4CC4)c3Cc3ccc(S(N)(=O)=O)c(F)c3)c2)s1 [Compound 119, (E)-2-(5-(cyclopropylmethyl)-4-(3-fluoro-4-sulfamoylbenzyl)-3-(3-(2-(5-methylthiophen-2-yl)vinyl)phenyl)-1H-pyrazol-1-yl)thiazole-4-carboxylic acid] | – |
| < 100 | < 1 | Cc1ccsc1C#Cc1cccc(-c2nn(-c3nc(C(=O)O)cs3)c(CC3CC3)c2Cc2ccc(S(N)(=O)=O)c(F)c2)c1 [Compound 120, 2-(5-(cyclopropylmethyl)-4-(3-fluoro-4-sulfamoylbenzyl)-3-(3-((3-methylthiophen-2-yl)ethynyl)phenyl)-1H-pyrazol-1-yl) thiazole-4-carboxylic acid] | – |
| < 100 | < 1 | NS(=O)(=O)c1ccc(Cc2c(-c3cccc(C#Cc4ccc(C(F)F)s4)c3)nn(-c3nc(C(=O)O)cs3)c2CC2CC2)cc1F [Compound 121, 2-(5-(cyclopropylmethyl)-3-(3-((5-(difluoromethyl)thiophen-2-yl)ethynyl)phenyl)-4-(3-fluoro-4-sulfamoylbenzyl)-1H-pyrazol-1-yl)thiazole-4-carboxylic acid] | – |
| < 100 | < 1 | Cc1cnc(C#Cc2cccc(-c3nn(-c4nc(C(=O)O)cs4)c(CC4CC4)c3Cc3ccc(S(N)(=O)=O)c(F)c3)c2)o1 [Compound 122, 2-(5-(cyclopropylmethyl)-4-(3-fluoro-4-sulfamoylbenzyl)-3-(3-((5-methyloxazol-2-yl)ethynyl)phenyl)-1H-pyrazol-1-yl)thiazole-4-carboxylic acid] | – |
| < 100 | < 1 | Cc1ccc(C#Cc2cccc(-c3nn(-c4nc(C(=O)O)cs4)c(CC4(C)CC4)c3Cc3ccc(S(N)(=O)=O)c(F)c3)c2)s1 [Compound 123, 2-(4-(3-fluoro-4-sulfamoylbenzyl)-5-((1-methylcyclopropyl)methyl)-3-(3-((5-methylthiophen-2-yl)ethynyl)phenyl)-1H-pyrazol-1-yl)thiazole-4-carboxylic acid] | – |
| 100 to 1000 | < 1 | NS(=O)(=O)c1ccc(Cc2c(-c3cccc(C#Cc4ccc(C(F)(F)F)s4)c3)nn(-c3nc(C(=O)O)cs3)c2CC2CC2)cc1F [Compound 124, 2-(5-(cyclopropylmethyl)-4-(3-fluoro-4-sulfamoylbenzyl)-3-(3-((5-(trifluoromethyl)thiophen-2-yl)ethynyl)phenyl)-1H-pyrazol-1-yl)thiazole-4-carboxylic acid] | – |
| < 100 | < 1 | Cc1cc(C)c(C#Cc2cccc(-c3nn(-c4nc(C(=O)O)cs4)c(CC4CC4)c3Cc3ccc(S(N)(=O)=O)c(F)c3)c2)s1 [Compound 125, 2-(5-(cyclopropylmethyl)-3-(3-((3,5-dimethylthiophen-2-yl)ethynyl)phenyl)-4-(3-fluoro-4-sulfamoylbenzyl)-1H-pyrazol-1-yl) thiazole-4-carboxylic acid] | – |
| 100 to 1000 | < 1 | CC(C)c1ccc(C#Cc2cccc(-c3nn(-c4nc(C(=O)O)cs4)c(CC4CC4)c3Cc3ccc(S(N)(=O)=O)c(F)c3)c2)s1 [Compound 127, 2-(5-(cyclopropylmethyl)-4-(3-fluoro-4-sulfamoylbenzyl)-3-(3-((5-isopropylthiophen-2-yl)ethynyl)phenyl)-1H-pyrazol-1-yl)thiazole-4-carboxylic acid] | – |
| < 100 | < 1 | Cc1ccc(C#Cc2cccc(-c3nn(-c4nc(C(=O)O)cs4)c(CC4CC4)c3Cc3ccc(S(N)(=O)=O)c(F)c3)c2)o1 [Compound 129, 2-(5-(cyclopropylmethyl)-4-(3-fluoro-4-sulfamoylbenzyl)-3-(3-((5-methylfuran-2-yl)ethynyl)phenyl)-1H-pyrazol-1-yl)thiazole-4-carboxylic acid] | – |
| < 100 | < 1 | Cc1ccc(C2CC2c2cccc(-c3nn(-c4nc(C(=O)O)cs4)c(CC4CC4)c3Cc3ccc(S(N)(=O)=O)c(F)c3)c2)s1 (centres unmarked) [Compound 130, 2-(5-(cyclopropylmethyl)-4-(3-fluoro-4-sulfamoylbenzyl)-3-(3-(2-(5-methylthiophen-2-yl)cyclopropyl)phenyl)-1H-pyrazol-1-yl)thiazole-4-carboxylic acid] | – |
